According to patent US10556929B2, “Cytotoxic T lymphocyte inducing immunogens for prevention treatment and diagnosis of dengue virus infection” (Emergex Vaccines Holdings Limited, priority 2011, dated 2020):

Columns and labels:
Assay type in all cases: cell-based, human
[1] = tested on: T2 cells loaded with the corresponding synthetic peptide; experiment: IFN-γ ELISpot, CTL vs peptide-pulsed T2 cells; details: CTL from HLA-A2+ healthy donor PBMC generated with synthetic peptide, overnight ELISpot, FIG. 3A-D
Protocol: (§1) Heparinized blood from healthy HLA-A2+ donors was purchased from Research Blood Components, LLC (Brighton, Mass.). Peripheral blood mononuclear cells (PBMC) were purified using differential centrifugation following standard methods. PBMC were used to generate peptide specific CTL as described previously (James S. Testa, et al. J Infect Dis 205(4): 647-655. (2012)).
(§2) Antigen stimulated interferon-γ (IFN-γ) release as a measure of CTL activation was assayed using an ELISPOT assay kit (BD-Pharmingen, San Jose, Calif.) according to the manufacturer's instructions. Results are presented as the number of interferon-γ producing cells per 1E6 PBMCs. Each assay was performed with PBMC from at least three different healthy HLA-A2+ donors. Error bars represent SEM of experimental replicates.
In order to characterize the functionality of the identified DV epitopes, we generated cytotoxic T cells from HLA-A2+ healthy donors using synthetic peptides corresponding to the identified epitopes. The cultures were tested in overnight ELISpot assays to measure IFNγ release from activated CTLs. […] Next, to confirm CTL activation against DV-infected targets, JY and HepG2 cells were infected with both DV2 and DV3 virus and used as targets in CTL ELISpot assays. […] In addition, K562 cells, a known NK cell target, were used as targets to measure non-specific IFNγ secretion.

[2] = tested on: JY and HepG2 cells infected with DV2 and DV3 virus; experiment: IFN-γ ELISpot, CTL vs DV2/DV3-infected JY and HepG2 cells; details: FIG. 3E-F
Protocol: (§3) Dengue virus serotype 2 (DV2) (strain-16681), as well as DV type 3 (DV3) (strain-16562), were propagated in Vero cells and collected at 4 days post infection (dpi). Titer was determined using a plaque assay in Vero cells. Thai isolates of all four DV serotypes were propagated. All infections were carried out at five MOI for lhr, after which, virus was removed and cells were incubated for additional 48-72 hrs.
as §1, §2
In order to characterize the functionality of the identified DV epitopes, we generated cytotoxic T cells from HLA-A2+ healthy donors using synthetic peptides corresponding to the identified epitopes. […]

[3] = tested on: HepG2 cells infected with DV1-4 Thai isolates; experiment: IFN-γ ELISpot, CTL vs HepG2 cells infected with DV1-4 Thai isolates; details: HepG2 infected with DV1-4 Thai isolates, FIG. 4C-F
Protocol: as §3, §1, §2
(§4) We tested CTLs generated against the 4 epitopes using targets infected with all four DV serotypes. We infected HepG2 cells (FIG. 4A) or JY cells (FIG. 4B) with DV1-4 Thai isolates and verified protein expression. […] In addition to HepG2 cells, we also tested professional APC JY cells, as targets.

[4] = tested on: JY cells infected with DV1-4 Thai isolates; experiment: IFN-γ ELISpot, CTL vs JY cells infected with DV1-4 Thai isolates; details: JY infected with DV1-4 Thai isolates, FIG. 4G-J
Protocol: as §3, §1, §2, §4

Sequence | recognition of peptide-loaded targets by peptide-specific CTL (IFNγ release) [1] | CTL activation (IFNγ secretion) against DV-infected targets [2] | activation of epitope-specific CTL against infected HepG2 targets [3] | activation of peptide-specific CTL by infected JY targets [4] | DV serotypes of infected targets recognized by peptide-specific CTL [4]
TITEEIAVQ (listed as Homo sapiens) [P3-TIT] | recognize T2 cells loaded with the corresponding synthetic peptide | all DV-infected cells activated CTL to secrete IFNγ | activated against all four serotypes, although not to the same degree | most infected targets activate peptide-specific CTL | –
NIQTAINQV (listed as Homo sapiens) [P4-NIQ] | recognize T2 cells loaded with the corresponding synthetic peptide | – | activated against all four serotypes, although not to the same degree | most infected targets activate peptide-specific CTL | –
KLAEAIFKL (listed as Homo sapiens) [P1-KLA] | recognize T2 cells loaded with the corresponding synthetic peptide | – | activated against all four serotypes, although not to the same degree | most infected targets activate peptide-specific CTL | recognized only DV2-infected targets
VTLLCLIPTV (listed as Homo sapiens) [P2-VTL] | recognize T2 cells loaded with the corresponding synthetic peptide | all DV-infected cells activated CTL to secrete IFNγ | activated against all four serotypes, although not to the same degree | most infected targets activate peptide-specific CTL | recognized only DV2-infected targets
